Assays:
[1] = Tolerability study, Hippocratic screening; format: in vivo, mice; design: Hypnosis / Sedation / Urination / Tachypnea / Muscle tone / Convulsions / Salivation / Tremors / Vocalization / Limb abduction / Ataxia: scale not given here; conditions: 150 mg/kg PO
Experimental: A tolerability study of drug candidates was conducted using the Hippocratic screening protocol, focusing on the assessment of effects on the central nervous system (CNS) and autonomic nervous system (ANS). Each group containing 3 animals received a 150 mg/kg dose of the compounds via oral (PO) administration (gavage). During the experiment, various behavioral and physiological parameters were monitored at regular intervals, ranging from 0 to 24 hours after administration of the substance.

[2] = Lipophilicity assay (LogD at pH 7.4), shake flask; format: physicochemical; conditions: pH 7.4, n-octanol/phosphate buffer
Experimental: For this assay, an aqueous phosphate buffer solution at pH 7.4, saturated with n-octanol, was prepared, along with an n-octanol solution saturated with the aqueous phase at pH 7.4. Both solutions were mechanically stirred (using a magnetic stir bar and a Corning magnetic stirrer) at room temperature for 24 h, followed by a 24-hour resting period to ensure complete phase separation. Different phase ratios were prepared from these solutions in the following aqueous phase/n-octanol ratios: 1:1, 1:10, 1:100, and 1:300, to ensure that the substances were evaluated under non-saturating conditions. Stock solutions of each compound were prepared in DMSO at a concentration of 20 mM. From these stock solutions, standard solutions at a concentration of 30 µM in phosphate buffer pH 7.4 were obtained and used in each partition system, performed in triplicate. To reach equilibrium, the vials containing the samples were shaken for 90 min at room temperature using a roller shaker (Basic First Lab Orbital).

[3] = Metabolic stability in mouse liver microsomes; format: in vitro ADME; conditions: for half-life at 1 μM: CD-1, pH 7.4, mouse liver microsomes, 0.25 mg/mL, read-out: T1/2 - mouse; for parent compound remaining: mouse microsomes
Experimental: The in vitro metabolic stability of the compound was evaluated in pooled human liver microsomes (HLM, 20 mg/mL), Sprague-Dawley rat liver microsomes (RLM, 20 mg/mL), and CD-1 mouse liver microsomes (MLM, 20 mg/mL), all purchased from GIBCO (Thermo Fisher Scientific). NADPH regenerating system (GentestTM) was prepared in potassium phosphate buffer (100 mM, pH 7.4). […] The reaction was stopped by adding acetonitrile, followed by vortex homogenization, sonication for 5 min, and centrifugation at 10,000 g for 5 min at 4 °C. The supernatants were transferred to glass vials for LC-MS/MS analysis. The half-life was estimated based on the area under the curve (AUC) through regression analysis of the concentration decay over time. This calculation was performed using the following formula: t1/2=LN2/Kel
Where LN is the neperian logarithm, and K is the slope of the regression of the LN of AUC as a function of time. Then, the microsomal intrinsic clearance (CLint, mic) was calculated using the following equation: CLint.mic=LN2/t1/2 x VI/PM
Where V is the incubation volume (µL), and PM is the microsomal protein concentration (mg). This intrinsic clearance can be extrapolated to the whole liver (CLint,hep) using the following equation: CLint.hep=CLint.mic x ML x LB
ML is the microsomal yield, and LB is the liver weight (g) per kilogram of body weight.
To ensure the linearity of the elimination phase and to avoid the influence of points outside the log-linear range, the points deviated from the expected first-order kinetic profile were excluded. The supernatants were analyzed by UPLC-Xevo-TQ-XS from Waters. Chromatographic separation was performed on an Acquity UPLC BEH C18 column (2.1 × 100 mm, 1.7 µm particle size), maintained at 40 °C. The mobile phases were (A) water with 0.1% formic acid and (B) acetonitrile with 0.1% formic acid. […] The total run time was 5 min.

Molecule `CC(C)Oc1ccc(NS(=O)(=O)c2cccc(NC(=O)c3cnccn3)c2)cc1` [AC-M110, N-(3-(N-(4-isopropoxyphenyl)sulfamoyl)phenyl)pyrazine-2-carboxamide] has an Ataxia ([1]; 0-15 min) of 0A, a Convulsions ([1]; 0-15 min) of 0A and a Hypnosis ([1]; 0-15 min) of 0A. The Limb abduction ([1]; 0-15 min) was 0A, the Muscle tone ([1]; 0-15 min) was 0A and the Pedaling ([1]; 0-15 min) was 0A. The Piloerection ([1]; 0-15 min) was 0A, the Ptosis ([1]; 0-15 min) was 0A and the Salivation ([1]; 0-15 min) was 0A. For the same molecule, the Sedation ([1]; 0-15 min) was 0A, the Tachypnea ([1]; 0-15 min) was 0A and the Tremors ([1]; 0-15 min) was 0A. For the same molecule, the Urination ([1]; 0-15 min) was 0A, the Vocalization ([1]; 0-15 min) was 0A and the Ataxia ([1]; 15 min) was 0A. For the same molecule, the Convulsions ([1]; 15 min) was 0A, the Hypnosis ([1]; 15 min) was 0A and the Limb abduction ([1]; 15 min) was 0A. The Muscle tone ([1]; 15 min) was 0A, the Pedaling ([1]; 15 min) was 0A and the Piloerection ([1]; 15 min) was 0A. For the same molecule, the Ptosis ([1]; 15 min) was 0A, the Salivation ([1]; 15 min) was 0A and the Sedation ([1]; 15 min) was 0A. It also gave a Tachypnea ([1]; 15 min) of 0A, a Tremors ([1]; 15 min) of 0A and a Urination ([1]; 15 min) of 0A. It also gave a Vocalization ([1]; 15 min) of 0A, an Ataxia ([1]; 30 min) of 0A and a Convulsions ([1]; 30 min) of 0A. For the same molecule, the Hypnosis ([1]; 30 min) was 0A, the Limb abduction ([1]; 30 min) was 0A and the Muscle tone ([1]; 30 min) was 0A. It also gave a Pedaling ([1]; 30 min) of 0A, a Piloerection ([1]; 30 min) of 0A and a Ptosis ([1]; 30 min) of 0A. For the same molecule, the Salivation ([1]; 30 min) was 0A, the Sedation ([1]; 30 min) was 0A and the Tachypnea ([1]; 30 min) was 0A. For the same molecule, the Tremors ([1]; 30 min) was 0A, the Urination ([1]; 30 min) was 0A and the Vocalization ([1]; 30 min) was 0A. It also gave an Ataxia ([1]; 60 min) of 0A, a Convulsions ([1]; 60 min) of 0A and a Hypnosis ([1]; 60 min) of 0A. It also gave a Limb abduction ([1]; 60 min) of 0A, a Muscle tone ([1]; 60 min) of 0A and a Pedaling ([1]; 60 min) of 0A. The Piloerection ([1]; 60 min) was 0A, the Ptosis ([1]; 60 min) was 0A and the Salivation ([1]; 60 min) was 0A. For the same molecule, the Sedation ([1]; 60 min) was 0A, the Tachypnea ([1]; 60 min) was 0A and the Tremors ([1]; 60 min) was 0A. The Urination ([1]; 60 min) was 0A, the Vocalization ([1]; 60 min) was 0A and the Ataxia ([1]; 2h) was 0A. For the same molecule, the Convulsions ([1]; 2h) was 0A, the Hypnosis ([1]; 2h) was 0A and the Limb abduction ([1]; 2h) was 0A. It also gave a Muscle tone ([1]; 2h) of 0A, a Pedaling ([1]; 2h) of 0A and a Piloerection ([1]; 2h) of 0A. For the same molecule, the Ptosis ([1]; 2h) was 0A, the Salivation ([1]; 2h) was 0A and the Sedation ([1]; 2h) was 0A. For the same molecule, the Tachypnea ([1]; 2h) was 0A, the Tremors ([1]; 2h) was 0A and the Urination ([1]; 2h) was 0A. It also gave a Vocalization ([1]; 2h) of 0A, an Ataxia ([1]; 3h) of 0A and a Convulsions ([1]; 3h) of 0A. For the same molecule, the Hypnosis ([1]; 3h) was 0A, the Limb abduction ([1]; 3h) was 0A and the Muscle tone ([1]; 3h) was 0A. The Pedaling ([1]; 3h) was 0A, the Piloerection ([1]; 3h) was 0A and the Ptosis ([1]; 3h) was 0A. The Salivation ([1]; 3h) was 0A, the Sedation ([1]; 3h) was 0A and the Tachypnea ([1]; 3h) was 0A. For the same molecule, the Tremors ([1]; 3h) was 0A, the Urination ([1]; 3h) was 0A and the Vocalization ([1]; 3h) was 0A. It also gave an Ataxia ([1]; 4h) of 0A, a Convulsions ([1]; 4h) of 0A and a Hypnosis ([1]; 4h) of 0A. The Limb abduction ([1]; 4h) was 0A, the Muscle tone ([1]; 4h) was 0A and the Pedaling ([1]; 4h) was 0A. For the same molecule, the Piloerection ([1]; 4h) was 0A, the Ptosis ([1]; 4h) was 0A and the Salivation ([1]; 4h) was 0A. For the same molecule, the Sedation ([1]; 4h) was 0A, the Tachypnea ([1]; 4h) was 0A and the Tremors ([1]; 4h) was 0A. For the same molecule, the Urination ([1]; 4h) was 0A, the Vocalization ([1]; 4h) was 0A and the Ataxia ([1]; 24h) was 0A. For the same molecule, the Convulsions ([1]; 24h) was 0A, the Hypnosis ([1]; 24h) was 0A and the Limb abduction ([1]; 24h) was 0A. For the same molecule, the Muscle tone ([1]; 24h) was 0A, the Pedaling ([1]; 24h) was 0A and the Piloerection ([1]; 24h) was 0A. For the same molecule, the Ptosis ([1]; 24h) was 0A, the Salivation ([1]; 24h) was 0A and the Sedation ([1]; 24h) was 0A. It also gave a Tachypnea ([1]; 24h) of 0A, a Tremors ([1]; 24h) of 0A and a Urination ([1]; 24h) of 0A. The Vocalization ([1]; 24h) was 0A, the logD at 90 min [2] was 3 and the microsomal CLint at 1 μM ([3]; CD-1, mouse, liver microsomes, pH 7.4, mouse liver microsomes, read-out: CL int. mic.) was 339 µL/min/mg. The half-life at 1 μM [3] was 2 min, the parent compound remaining ([3]; 15 min) was “less than 1%” and the CL int. hep. ([3]; mouse, extrapolated to the whole liver) was 1370 mL/min/kg.

`COc1ccc(NS(=O)(=O)c2cccc(NC(=O)c3cnccn3)c2)cc1` [AC-R008, N-(3-(N-(4-methoxyphenyl)sulfamoyl)phenyl)pyrazine-2-carboxamide] gave an Ataxia ([1]; 0-15 min) of 0A, a Convulsions ([1]; 0-15 min) of 0A and a Hypnosis ([1]; 0-15 min) of 0A. It also gave a Limb abduction ([1]; 0-15 min) of 0A, a Muscle tone ([1]; 0-15 min) of 0A and a Pedaling ([1]; 0-15 min) of 0A. It also gave a Piloerection ([1]; 0-15 min) of 0A, a Ptosis ([1]; 0-15 min) of 0A and a Salivation ([1]; 0-15 min) of 0A. For the same molecule, the Sedation ([1]; 0-15 min) was 0A, the Tachypnea ([1]; 0-15 min) was 0A and the Tremors ([1]; 0-15 min) was 0A. The Urination ([1]; 0-15 min) was 0A, the Vocalization ([1]; 0-15 min) was 0A and the Ataxia ([1]; 15 min) was 0A. For the same molecule, the Convulsions ([1]; 15 min) was 0A, the Hypnosis ([1]; 15 min) was 0A and the Limb abduction ([1]; 15 min) was 0A. The Muscle tone ([1]; 15 min) was 0A, the Pedaling ([1]; 15 min) was 0A and the Piloerection ([1]; 15 min) was 0A. The Ptosis ([1]; 15 min) was 0A, the Salivation ([1]; 15 min) was 0A and the Sedation ([1]; 15 min) was 0A. The Tachypnea ([1]; 15 min) was 0A, the Tremors ([1]; 15 min) was 0A and the Urination ([1]; 15 min) was 0A. The Vocalization ([1]; 15 min) was 0A, the Ataxia ([1]; 30 min) was 0A and the Convulsions ([1]; 30 min) was 0A. It also gave a Hypnosis ([1]; 30 min) of 0A, a Limb abduction ([1]; 30 min) of 0A and a Muscle tone ([1]; 30 min) of 0A. For the same molecule, the Pedaling ([1]; 30 min) was 0A, the Piloerection ([1]; 30 min) was 0A and the Ptosis ([1]; 30 min) was 0A. The Salivation ([1]; 30 min) was 0A, the Sedation ([1]; 30 min) was 0A and the Tachypnea ([1]; 30 min) was 0A. It also gave a Tremors ([1]; 30 min) of 0A, a Urination ([1]; 30 min) of 0A and a Vocalization ([1]; 30 min) of 0A. The Ataxia ([1]; 60 min) was 0A, the Convulsions ([1]; 60 min) was 0A and the Hypnosis ([1]; 60 min) was 0A. It also gave a Limb abduction ([1]; 60 min) of 0A, a Muscle tone ([1]; 60 min) of 0A and a Pedaling ([1]; 60 min) of 0A. The Piloerection ([1]; 60 min) was 0A, the Ptosis ([1]; 60 min) was 0A and the Salivation ([1]; 60 min) was 0A. It also gave a Sedation ([1]; 60 min) of 0A, a Tachypnea ([1]; 60 min) of 0A and a Tremors ([1]; 60 min) of 0A. For the same molecule, the Urination ([1]; 60 min) was 0A, the Vocalization ([1]; 60 min) was 0A and the Ataxia ([1]; 2h) was 0A. For the same molecule, the Convulsions ([1]; 2h) was 0A, the Hypnosis ([1]; 2h) was 0A and the Limb abduction ([1]; 2h) was 0A. For the same molecule, the Muscle tone ([1]; 2h) was 0A, the Pedaling ([1]; 2h) was 0A and the Piloerection ([1]; 2h) was 0A. For the same molecule, the Ptosis ([1]; 2h) was 0A, the Salivation ([1]; 2h) was 0A and the Sedation ([1]; 2h) was 0A. It also gave a Tachypnea ([1]; 2h) of 0A, a Tremors ([1]; 2h) of 0A and a Urination ([1]; 2h) of 0A. It also gave a Vocalization ([1]; 2h) of 0A, an Ataxia ([1]; 3h) of 0A and a Convulsions ([1]; 3h) of 0A. The Hypnosis ([1]; 3h) was 0A, the Limb abduction ([1]; 3h) was 0A and the Muscle tone ([1]; 3h) was 0A. The Pedaling ([1]; 3h) was 0A, the Piloerection ([1]; 3h) was 0A and the Ptosis ([1]; 3h) was 0A. It also gave a Salivation ([1]; 3h) of 0A, a Sedation ([1]; 3h) of 0A and a Tachypnea ([1]; 3h) of 0A. For the same molecule, the Tremors ([1]; 3h) was 0A, the Urination ([1]; 3h) was 0A and the Vocalization ([1]; 3h) was 0A. The Ataxia ([1]; 4h) was 0A, the Convulsions ([1]; 4h) was 0A and the Hypnosis ([1]; 4h) was 0A. For the same molecule, the Limb abduction ([1]; 4h) was 0A, the Muscle tone ([1]; 4h) was 0A and the Pedaling ([1]; 4h) was 0A. It also gave a Piloerection ([1]; 4h) of 0A, a Ptosis ([1]; 4h) of 0A and a Salivation ([1]; 4h) of 0A. For the same molecule, the Sedation ([1]; 4h) was 0A, the Tachypnea ([1]; 4h) was 0A and the Tremors ([1]; 4h) was 0A. It also gave a Urination ([1]; 4h) of 0A, a Vocalization ([1]; 4h) of 0A and an Ataxia ([1]; 24h) of 0A. The Convulsions ([1]; 24h) was 0A, the Hypnosis ([1]; 24h) was 0A and the Limb abduction ([1]; 24h) was 0A. It also gave a Muscle tone ([1]; 24h) of 0A, a Pedaling ([1]; 24h) of 0A and a Piloerection ([1]; 24h) of 0A. It also gave a Ptosis ([1]; 24h) of 0A, a Salivation ([1]; 24h) of 0A and a Sedation ([1]; 24h) of 0A. The Tachypnea ([1]; 24h) was 0A, the Tremors ([1]; 24h) was 0A and the Urination ([1]; 24h) was 0A. For the same molecule, the Vocalization ([1]; 24h) was 0A, the logD at 90 min [2] was 2.5 and the half-life at 1 μM [3] was 3 min. The parent compound remaining ([3]; 5 min) was 5% and the parent compound remaining ([3]; 15 min) was “less than 1%”.
